Test results from BindingDB's records for doi:10.1016/j.bmcl.2009.10.099 (Merck Research Laboratories, 2010).

What follows are molecules tested against Cholesteryl ester transfer protein (Homo sapiens) (UniProt P11597) (assay: inhibition of human CETP assessed as cholesteryl ester transfer by fluorescence transfer assay).
Chain of Cholesteryl ester transfer protein (Homo sapiens) (P11597 whole entry, looked up): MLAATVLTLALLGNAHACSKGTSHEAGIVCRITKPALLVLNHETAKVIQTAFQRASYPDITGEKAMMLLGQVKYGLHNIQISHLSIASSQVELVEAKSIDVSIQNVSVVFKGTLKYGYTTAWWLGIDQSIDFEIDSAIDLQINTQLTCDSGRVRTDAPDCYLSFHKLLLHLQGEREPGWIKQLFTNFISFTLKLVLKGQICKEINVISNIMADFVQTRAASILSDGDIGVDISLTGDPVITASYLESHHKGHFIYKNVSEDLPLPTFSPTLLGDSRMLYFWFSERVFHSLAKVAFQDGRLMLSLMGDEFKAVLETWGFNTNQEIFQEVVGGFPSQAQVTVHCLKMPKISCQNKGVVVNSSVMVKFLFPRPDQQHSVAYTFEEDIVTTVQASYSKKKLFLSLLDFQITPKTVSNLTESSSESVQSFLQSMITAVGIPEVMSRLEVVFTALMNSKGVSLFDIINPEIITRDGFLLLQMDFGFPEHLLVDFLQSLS

IC50	Structure (SMILES)
0.94 µM	Cc1ccccc1OCC(=O)Nc1ccc(-c2nc3cc([N+](=O)[O-])ccc3o2)cc1
2 µM	Cc1ccc2oc(-c3ccc(NC(=O)COc4ccccc4C)cc3)nc2c1
7.5 µM	Cc1ccccc1OCC(=O)Nc1ccc(-c2nc3ccc(F)cc3o2)cc1
3.2 µM	Cc1ccccc1OCC(=O)Nc1ccc(-c2nc3ccc([N+](=O)[O-])cc3o2)cc1
3.4 µM	Cc1ccccc1OCC(=O)Nc1ccc(-c2nc3cc(C(C)O)ccc3o2)cc1 (configuration not stated)
0.91 µM	Cc1ccccc1OCC(=O)Nc1ccc(-c2nc3cc(Br)cc(F)c3o2)cc1
0.086 µM	CC(=O)c1cc(C#N)cc2nc(-c3ccc(NC(=O)COc4ccccc4C)cc3)oc12
0.16 µM	CC#CC(C)(O)c1cc(C#N)cc2nc(-c3ccc(NC(=O)COc4ccccc4C)cc3)oc12 (configuration not stated)
> 100 µM	Cc1ccccc1OCC(=O)Nc1ccc(-c2nc3c(C)c(Br)ccc3o2)cc1
21 µM	Cc1ccccc1OCC(=O)Nc1ccc(-c2nc3cccc(Cl)c3o2)cc1
> 100 µM	Cc1cc2oc(-c3ccc(NC(=O)COc4ccccc4C)cc3)nc2cc1Cl
0.044 µM	Cc1ccccc1OCC(=O)Nc1ccc(-c2nc3cc(Br)cc(C(C)(C)O)c3o2)cc1
